Measured values taken from US11993599B2, “Therapeutic compounds” (Genentech, Inc., priority 2021, dated 2024).

Experiments:
Type in all cases: cell-based
BRM [1] = target: T1, BRM (Homo sapiens, UniProt P51531); test: HiBIT nanoluciferase complementation screen for BRM degraders; conditions: 18 hours, BRM-HiBIT KI Hela cells, luminescence normalized: DMSO only = 0%, no cells = −100%; for Median HiBiT activity 1 μM: compound 1 μM; for Median HiBiT activity 10 μM: compound 10 μM
Source text: Example B-1: HiBIT Nanoluciferase Complementation Screen for BRM Degraders
To assess BRM degradation, compounds were screened for their effect of BRM levels using the HiBIT nanoluciferase complementation strategy developed at Promega. In brief, a HELA cell line that was genetically modified via CRISPR/CAS9 was used to fuse the HiBIT sequence at the 3′ end of BRM (BRM-HiBIT KI Hela). BRM protein levels were then detected using the Nano-Glo HiBIT lytic detection reagent (Promega).
The screened compounds were plated into a white 384-well plate at 10 μM and 1 μM in 25 nL DMSO using an Echo dispenser (Labcyte). BRM-HiBIT KI Hela cells were seeded in the compound plate at 5000 cell per well at 25 μl in DMEM growth media (containing 10% FBS, 1% Glutamax (GIBCO cat #31053-028), lx Penicillin-Streptomycin (ROCHE, cat #1107444001), 4.5 g/L D-Glucose, and no phenol red). After incubation with compounds for 18 hours at 37° C., cell viability was assessed by the addition of 5 μl Cell Titer-Fluor reagent (Promega). After 30 s of mixing on an orbital shaker, and 30 minutes incubation at 37° C., fluorescence was measured with an INFINITE F500 (Tecan) (380-400 nm excitation, 505 nm emission). Next, to assess BRM HiBIT levels, 30 μl of Nano-Glo HiBIT lytic detection reagent (Promega) containing 1:50 Nano-Glo HiBIT lytic substrate and 1:100 LgBIT protein per ml of lytic buffer was added. After shaking on an orbital shaker at 350 rpm for 10 minutes, luminescence was measured on the INFINITE F500 (Tecan). To assess compound effects, luminescence signal was normalized with the mean of wells treated with DMSO only set to 0% and the mean of wells containing no cells set to −100%. Note that, in Table 4, the “Compound Number” corresponds to that used in Table 1.

BRG1 = target: T2, BRG1 (Homo sapiens, UniProt P51532); test: Immunofluorescence assay for BRG1 degradation in SW1573 cells; conditions: 20 hours incubation; for DC50: immunofluorescence mean nuclear signal, read-out: BRG1 IF Degradation IC50; for Dmax: SW1573, 20 h, normalized to a known degrader control, read-out: BRG1 IF Degradation Sinf (%)
T2 construct: either BRM primary antibody (Cell signaling Cat #11966) or BRG primary antibody (Abcam, ab 110641); endogenous in cells; host or cells: SW1573
Outline: (§1)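 SW1573 cells were treated with compound for 20 h, fixed, permeabilized and immunostained for BRM or BRG1 with a Hoechst nuclear counterstain. Mean nuclear signal intensity per cell was quantified by high-content imaging, normalized to a known degrader control, and dose-response curves were fit with a floating maximum to derive Dmax.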

BRM [2] = target: T1, BRM; test: Immunofluorescence assay for BRM degradation in SW1573 cells; design: treated overnight at 4° C. with either BRM primary antibody (Cell signaling Cat #11966) or BRG primary antibody; endogenous in cells; host or cells: SW1573; conditions: 20 hours incubation; for DC50: immunofluorescence mean nuclear signal, read-out: BRM IF Degradation IC50; for BRM IF Degradation Sinf (%): normalized to a known degrader control
Outline: as §1

T1 sequence (P51531 whole entry): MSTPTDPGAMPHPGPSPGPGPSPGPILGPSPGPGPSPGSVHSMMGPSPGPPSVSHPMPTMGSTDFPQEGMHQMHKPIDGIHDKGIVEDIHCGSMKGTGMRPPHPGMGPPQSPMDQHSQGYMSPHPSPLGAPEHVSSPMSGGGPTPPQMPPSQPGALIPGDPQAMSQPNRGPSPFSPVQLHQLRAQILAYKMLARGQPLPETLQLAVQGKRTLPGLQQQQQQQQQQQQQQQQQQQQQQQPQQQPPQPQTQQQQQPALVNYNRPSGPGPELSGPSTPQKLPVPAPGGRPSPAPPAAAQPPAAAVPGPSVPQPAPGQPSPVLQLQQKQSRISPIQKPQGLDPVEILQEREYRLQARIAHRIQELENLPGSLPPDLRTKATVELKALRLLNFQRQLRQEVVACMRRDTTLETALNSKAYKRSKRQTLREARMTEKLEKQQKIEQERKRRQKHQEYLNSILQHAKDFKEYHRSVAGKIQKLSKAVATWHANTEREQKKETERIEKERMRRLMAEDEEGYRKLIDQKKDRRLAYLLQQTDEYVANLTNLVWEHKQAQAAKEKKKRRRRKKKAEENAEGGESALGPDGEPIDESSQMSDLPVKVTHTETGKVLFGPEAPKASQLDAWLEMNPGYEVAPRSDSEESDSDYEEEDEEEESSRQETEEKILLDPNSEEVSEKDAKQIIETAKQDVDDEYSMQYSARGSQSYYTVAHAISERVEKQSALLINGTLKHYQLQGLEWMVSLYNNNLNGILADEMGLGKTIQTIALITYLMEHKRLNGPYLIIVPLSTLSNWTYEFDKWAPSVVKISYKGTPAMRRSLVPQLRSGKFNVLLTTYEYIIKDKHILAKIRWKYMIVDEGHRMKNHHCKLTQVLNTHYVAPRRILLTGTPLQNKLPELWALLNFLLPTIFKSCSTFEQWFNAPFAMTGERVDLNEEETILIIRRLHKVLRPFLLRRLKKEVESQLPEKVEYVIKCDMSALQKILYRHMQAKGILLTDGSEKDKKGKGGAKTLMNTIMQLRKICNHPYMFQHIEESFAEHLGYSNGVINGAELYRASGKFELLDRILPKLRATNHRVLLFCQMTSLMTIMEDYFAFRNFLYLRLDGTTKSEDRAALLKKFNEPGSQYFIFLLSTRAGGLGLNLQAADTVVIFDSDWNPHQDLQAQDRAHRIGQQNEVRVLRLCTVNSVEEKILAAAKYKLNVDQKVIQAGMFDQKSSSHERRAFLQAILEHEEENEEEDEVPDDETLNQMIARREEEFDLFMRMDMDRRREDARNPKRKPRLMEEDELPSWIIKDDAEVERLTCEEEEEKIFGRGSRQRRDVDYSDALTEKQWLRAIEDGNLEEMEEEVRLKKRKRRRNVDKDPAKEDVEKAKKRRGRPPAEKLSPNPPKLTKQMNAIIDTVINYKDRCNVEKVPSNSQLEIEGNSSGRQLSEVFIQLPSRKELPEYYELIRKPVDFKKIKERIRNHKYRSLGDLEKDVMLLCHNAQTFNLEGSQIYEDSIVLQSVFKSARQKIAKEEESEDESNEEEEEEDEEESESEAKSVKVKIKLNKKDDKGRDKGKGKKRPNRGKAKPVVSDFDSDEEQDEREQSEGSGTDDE
T2 sequence (P51532 whole entry): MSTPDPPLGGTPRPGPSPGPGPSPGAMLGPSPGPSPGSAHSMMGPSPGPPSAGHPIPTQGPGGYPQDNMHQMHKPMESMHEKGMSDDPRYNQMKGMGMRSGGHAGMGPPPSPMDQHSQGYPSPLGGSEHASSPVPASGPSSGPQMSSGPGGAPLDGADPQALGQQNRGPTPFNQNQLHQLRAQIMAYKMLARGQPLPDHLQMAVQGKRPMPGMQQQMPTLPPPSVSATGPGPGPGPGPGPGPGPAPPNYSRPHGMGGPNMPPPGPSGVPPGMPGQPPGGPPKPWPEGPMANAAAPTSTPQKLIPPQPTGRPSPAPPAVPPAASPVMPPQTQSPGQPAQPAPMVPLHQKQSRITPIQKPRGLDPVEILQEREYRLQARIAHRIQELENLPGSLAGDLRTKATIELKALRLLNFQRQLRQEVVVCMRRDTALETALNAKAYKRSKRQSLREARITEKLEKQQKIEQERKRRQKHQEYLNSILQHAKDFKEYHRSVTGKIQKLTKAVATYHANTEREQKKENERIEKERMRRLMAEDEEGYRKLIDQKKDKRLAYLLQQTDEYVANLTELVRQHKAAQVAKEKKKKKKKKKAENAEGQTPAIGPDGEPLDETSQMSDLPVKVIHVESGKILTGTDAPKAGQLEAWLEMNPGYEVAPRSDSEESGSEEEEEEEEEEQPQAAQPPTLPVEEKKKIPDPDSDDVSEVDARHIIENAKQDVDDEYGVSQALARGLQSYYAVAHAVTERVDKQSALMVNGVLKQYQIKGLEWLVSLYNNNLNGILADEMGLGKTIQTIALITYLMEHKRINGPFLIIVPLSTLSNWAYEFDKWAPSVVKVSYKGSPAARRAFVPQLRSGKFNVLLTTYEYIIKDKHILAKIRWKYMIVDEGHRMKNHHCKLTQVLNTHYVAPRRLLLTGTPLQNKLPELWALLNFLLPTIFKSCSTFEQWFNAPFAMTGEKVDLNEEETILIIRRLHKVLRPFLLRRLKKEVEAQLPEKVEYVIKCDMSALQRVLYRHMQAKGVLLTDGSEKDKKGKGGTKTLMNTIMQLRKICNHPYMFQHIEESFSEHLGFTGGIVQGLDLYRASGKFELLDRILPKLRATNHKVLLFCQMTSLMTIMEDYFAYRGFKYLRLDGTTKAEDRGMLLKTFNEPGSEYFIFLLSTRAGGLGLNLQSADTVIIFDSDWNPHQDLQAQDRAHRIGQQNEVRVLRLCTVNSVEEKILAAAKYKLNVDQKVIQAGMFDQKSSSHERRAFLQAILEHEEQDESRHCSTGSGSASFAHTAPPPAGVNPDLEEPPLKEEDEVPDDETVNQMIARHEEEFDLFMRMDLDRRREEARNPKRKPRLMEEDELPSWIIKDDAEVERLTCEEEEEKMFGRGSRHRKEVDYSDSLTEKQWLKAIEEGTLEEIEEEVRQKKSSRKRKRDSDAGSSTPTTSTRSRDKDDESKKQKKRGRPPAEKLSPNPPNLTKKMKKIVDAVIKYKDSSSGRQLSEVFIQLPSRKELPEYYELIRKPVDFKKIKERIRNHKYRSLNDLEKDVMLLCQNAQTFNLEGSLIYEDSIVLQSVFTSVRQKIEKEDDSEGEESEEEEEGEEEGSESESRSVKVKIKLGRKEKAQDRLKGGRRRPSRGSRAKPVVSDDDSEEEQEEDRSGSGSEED

C[C@@H](N)C#Cc1cc(N2C3CCC2CN(c2cc(-c4ccccc4O)nnc2N)C3)ccn1 [Compound 23, 2-(6-amino-5-(8-(2-((R)-3-aminobut-1-yn-1-yl)pyridin-4-yl)-3,8-diazabicyclo[3.2.1]octan-3-yl)pyridazin-3-yl)phenol]
Median HiBiT activity 1 μM (BRM [1]): −29.3818% | Median HiBiT activity 10 μM (BRM [1]): −58.9213% | DC50 (BRG1): 10 to 100 nM | Dmax (BRG1): 30 to 70% | DC50 (BRM [2]): < 10 nM | BRM IF Degradation Sinf (%) (BRM [2]): E (E indicates −30%-−70%)

NCC#Cc1cc(N2C3CCC2CN(c2cc(-c4ccccc4O)nnc2N)C3)ccn1 [Compound 24, 2-(6-amino-5-(8-(2-(3-aminoprop-1-yn-1-yl)pyridin-4-yl)-3,8-diazabicyclo[3.2.1]octan-3-yl)pyridazin-3-yl)phenol]
Median HiBiT activity 1 μM (BRM [1]): −27.1137% | Median HiBiT activity 10 μM (BRM [1]): −43.5174% | DC50 (BRG1): > 100 nM | DC50 (BRM [2]): 10 to 100 nM | BRM IF Degradation Sinf (%) (BRM [2]): E (E indicates −30%-−70%)

Nc1nnc(-c2ccccc2O)cc1N1CC2CCC(C1)N2c1ccnc(C#CC2CCNC2)c1 (centres unmarked) [Compound 25, 2-(6-amino-5-(8-(2-(pyrrolidin-3-ylethynyl)pyridin-4-yl)-3,8-diazabicyclo[3.2.1]octan-3-yl)pyridazin-3-yl)phenol]
Median HiBiT activity 1 μM (BRM [1]): −26.7344% | Median HiBiT activity 10 μM (BRM [1]): −55.1975% | DC50 (BRG1): > 100 nM | DC50 (BRM [2]): > 100 nM | BRM IF Degradation Sinf (%) (BRM [2]): E (E indicates −30%-−70%)

Nc1nnc(-c2ccccc2O)cc1N1CC2CCC(C1)N2c1ccnc(C#CCCO)c1 [Compound 26, 2-(6-amino-5-(8-(2-(4-hydroxybut-1-yn-1-yl)pyridin-4-yl)-3,8-diazabicyclo[3.2.1]octan-3-yl)pyridazin-3-yl)phenol]
Median HiBiT activity 1 μM (BRM [1]): −25.9348% | Median HiBiT activity 10 μM (BRM [1]): −28.4202% | DC50 (BRG1): > 100 nM | DC50 (BRM [2]): > 100 nM

Nc1nnc(-c2ccccc2O)cc1N1CC2CCC(C1)N2c1ccnc(C#CCCCCO)c1 [Compound 27, 2-(6-amino-5-(8-(2-(6-hydroxyhex-1-yn-1-yl)pyridin-4-yl)-3,8-diazabicyclo[3.2.1]octan-3-yl)pyridazin-3-yl)phenol]
Median HiBiT activity 1 μM (BRM [1]): −23.7734% | Median HiBiT activity 10 μM (BRM [1]): −28.4819% | DC50 (BRG1): > 100 nM | DC50 (BRM [2]): > 100 nM | BRM IF Degradation Sinf (%) (BRM [2]): D (D indicates 0-−30%)

Nc1nnc(-c2ccccc2O)cc1N1CC2CCC(C1)N2c1ccnc(C#CCN2CCNCC2)c1 [Compound 28, 2-(6-amino-5-(8-(2-(3-(piperazin-1-yl)prop-1-yn-1-yl)pyridin-4-yl)-3,8-diazabicyclo[3.2.1]octan-3-yl)pyridazin-3-yl)phenol]
Median HiBiT activity 1 μM (BRM [1]): −23.3156% | Median HiBiT activity 10 μM (BRM [1]): −44.9026% | DC50 (BRG1): > 100 nM | DC50 (BRM [2]): > 100 nM | BRM IF Degradation Sinf (%) (BRM [2]): E (E indicates −30%-−70%)

Nc1nnc(-c2ccccc2O)cc1N1CC2CCC(C1)N2c1ccnc(C#C[C@H]2CC[C@H](N)CC2)c1 [Compound 29, 2-(6-amino-5-(8-(2-(((1r,4r)-4-aminocyclohexyl)ethynyl)pyridin-4-yl)-3,8-diazabicyclo[3.2.1]octan-3-yl)pyridazin-3-yl)phenol]
Median HiBiT activity 1 μM (BRM [1]): −22.4859% | Median HiBiT activity 10 μM (BRM [1]): −33.4085% | DC50 (BRG1): > 100 nM | DC50 (BRM [2]): > 100 nM

NCCC#Cc1cc(N2C3CCC2CN(c2cc(-c4ccccc4O)nnc2N)C3)ccn1 [Compound 30, 2-(6-amino-5-(8-(2-(4-aminobut-1-yn-1-yl)pyridin-4-yl)-3,8-diazabicyclo[3.2.1]octan-3-yl)pyridazin-3-yl)phenol]
Median HiBiT activity 1 μM (BRM [1]): −18.8155% | Median HiBiT activity 10 μM (BRM [1]): −47.5549% | DC50 (BRG1): > 100 nM | Dmax (BRG1): 0 to 30% | DC50 (BRM [2]): > 100 nM | BRM IF Degradation Sinf (%) (BRM [2]): E (E indicates −30%-−70%)

Nc1nnc(-c2ccccc2O)cc1N1CC2CCC(C1)N2c1ccnc(C#CCN2CCCC(N)C2)c1 (centres unmarked) [Compound 31, 2-(6-amino-5-(8-(2-(3-(3-aminopiperidin-1-yl)prop-1-yn-1-yl)pyridin-4-yl)-3,8-diazabicyclo[3.2.1]octan-3-yl)pyridazin-3-yl)phenol]
Median HiBiT activity 1 μM (BRM [1]): −16.7799% | Median HiBiT activity 10 μM (BRM [1]): −47.9900% | DC50 (BRG1): > 100 nM | DC50 (BRM [2]): > 100 nM

NCC(=O)NCCCc1cc(N2C3CCC2CN(c2cc(-c4ccccc4O)nnc2N)C3)ccn1 [Compound 32, 2-amino-N-(3-(4-(3-(3-amino-6-(2-hydroxyphenyl)pyridazin-4-yl)-3,8-diazabicyclo[3.2.1]octan-8-yl)pyridin-2-yl)propyl)acetamide]
Median HiBiT activity 1 μM (BRM [1]): −16.4623% | Median HiBiT activity 10 μM (BRM [1]): −30.3732% | DC50 (BRG1): 10 to 100 nM | Dmax (BRG1): 0 to 30% | DC50 (BRM [2]): 10 to 100 nM | BRM IF Degradation Sinf (%) (BRM [2]): E (E indicates −30%-−70%)

NCCCc1cc(N2C3CCC2CN(c2cc(-c4ccccc4O)nnc2N)C3)ccn1 [Compound 33, 2-(6-amino-5-(8-(2-(3-aminopropyl)pyridin-4-yl)-3,8-diazabicyclo[3.2.1]octan-3-yl)pyridazin-3-yl)phenol]
Median HiBiT activity 1 μM (BRM [1]): −14.8996% | Median HiBiT activity 10 μM (BRM [1]): −55.0132% | DC50 (BRG1): > 100 nM | Dmax (BRG1): 30 to 70% | DC50 (BRM [2]): > 100 nM | BRM IF Degradation Sinf (%) (BRM [2]): E (E indicates −30%-−70%)
